From US9290791B2, “Reagents and methods for sirtuin capture” (CORNELL UNIVERSITY, priority 2010, dated 2016)

How the values were obtained:
SirT1 [1] = target: T1, SirT1 (Homo sapiens, UniProt Q96EB6); assay: Sirtuin inhibitor screening pulldown assay (NAD+, azido-thiotripeptide, alkynyl-biotin; SDS-PAGE, silver stain); type: biochemical; settings: 500 μM inhibitor; sirtuin mixture, 5 μM SirT1, 500 μM NAD+, 200 μM 4-azido-BzlK(AcS)AAOMe; FIG. 10
Method: (§1) The key criterion for our pulldown technology is the formation of a stalled thioimidate complex with a cross-linkable moiety at the active site on sirtuins. If the presence of a sirtuin inhibitor can interrupt thioimidate formation, there will be less or no sirtuin can be harvested later on.
(§2) Pulldown assay: a typical reaction was performed in 100 mM phosphate buffer pH 7.5 in a total volume of 100 μL. Each reaction contained 500 μM of NAD^+, 200 μM of 4-azido-BzlK(AcS)AAOMe, and various concentrations of potential inhibitors. One control experiment which contained 500 μM of NAD^+ only were run at the same time. Reactions were initiated by addition of enzymes with final concentrations: 5 μM for SirT1, 3.4 μM for SirT2, 4.9 μM for SirT3, 5.04 μM for SirT5 and 5.35 μM for SirT6. Reactions were incubated at 37° C. for 30 min and then alkynyl-biotin was added to each sample to a final concentration of 500 μM followed by 3 μL of freshly premixed click chemistry cocktail: CuSO4 (final concentration 1 mM), tris[(1-benzyl-1H-1,2,3-triazol-4-yl)methyl]amine (TBTA, final concentration 600 μM) and tris(2-carboxyethyl)phosphine hydrochloride (TCEP, final concentration 2 mM). The samples were incubated at room temperature for 30 min. Then, 50 μL streptavidin beads (pretreated with 1 mM of BSA) were added to each sample and the incubation were continued at room temperature for 1 h. […]

SirT5 = target: T2, SirT5 (Homo sapiens, UniProt Q9NXA8); assay: as above; type: biochemical; settings: 500 μM inhibitor; sirtuin mixture, 5.04 μM SirT5, 500 μM NAD+, 200 μM 4-azido-BzlK(AcS)AAOMe; FIG. 10
T2 construct: SirT5(34-302); poly histidine tag (N); made in house; host or cells: E. coli BL21-CodonPlus(DE3)-RIPL
T2 sequence (Q9NXA8 34-302): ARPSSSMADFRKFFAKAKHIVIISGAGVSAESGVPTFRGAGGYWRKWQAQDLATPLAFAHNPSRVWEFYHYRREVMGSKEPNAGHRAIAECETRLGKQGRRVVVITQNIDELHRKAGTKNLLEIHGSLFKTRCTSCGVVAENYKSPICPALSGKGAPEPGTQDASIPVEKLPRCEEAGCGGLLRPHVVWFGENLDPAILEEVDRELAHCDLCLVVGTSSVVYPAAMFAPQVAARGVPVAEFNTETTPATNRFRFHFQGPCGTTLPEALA
Method: as §1, §2

SirT3 = target: T3, SirT3 (Homo sapiens, UniProt Q9NTG7); assay: as above; type: biochemical; settings: 500 μM inhibitor; sirtuin mixture, 4.9 μM SirT3, 500 μM NAD+, 200 μM 4-azido-BzlK(AcS)AAOMe; FIG. 10
T3 construct: poly histidine tag (N); made in house; host or cells: E. coli BL21-CodonPlus(DE3)-RIPL
T3 sequence (Q9NTG7 1-399): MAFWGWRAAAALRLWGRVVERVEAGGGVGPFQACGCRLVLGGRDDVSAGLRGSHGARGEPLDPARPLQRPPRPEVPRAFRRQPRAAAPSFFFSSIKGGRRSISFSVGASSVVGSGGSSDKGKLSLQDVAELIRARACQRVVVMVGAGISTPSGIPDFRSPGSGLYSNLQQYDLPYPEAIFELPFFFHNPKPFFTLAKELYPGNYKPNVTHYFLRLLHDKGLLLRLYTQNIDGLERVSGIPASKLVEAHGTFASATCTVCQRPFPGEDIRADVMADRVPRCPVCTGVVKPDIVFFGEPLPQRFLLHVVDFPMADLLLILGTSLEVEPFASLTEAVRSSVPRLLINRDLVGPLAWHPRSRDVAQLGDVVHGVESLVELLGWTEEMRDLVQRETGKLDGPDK
Method: as §1, §2

SirT1 [2] = target: T1, SirT1; assay: HPLC deacetylation assay of SirT1 with p53mer; type: biochemical; settings: 3 μM SirT1, 500 μM NAD+, 300 μM p53mer, various concentrations of suramin; FIG. 11
Method: HPLC assay: reactions were performed in 100 mM phosphate buffer pH 7.5 in a total volume of 50 μL. Each reaction contained 500 μM of NAD^+, 300 μM of p53mer and various concentrations of suramin. Reactions were initiated by addition of SirT1 to a final concentration of 3 μM. A negative control which contained 500 μM of NAD^+ and 300 μM of p53mer, but was quenched by addition of TFA before the addition of enzyme was run at the same time. The reactions were incubated at 37° C. for 20 min before being quenched by 8 of 10% TFA. The samples were then injected on an HPLC fitted to a Macherey-Nagel Nucleosil C18 column. AADPR, NAD^+ and NAM peaks were resolved using a gradient of 0 to 10% methanol in 20 mM ammonium acetate. Chromatograms were analyzed at 260 nm.

sirtuin = settings: known sirtuin inhibitor; cited from earlier work
[3] = tested on: class III HDACs (sirtuins); assay: Sirtuin inhibitor screening pulldown assay on sirtuin mixture; type: biochemical; settings: 20 μM inhibitor; mixture of SirT1, SirT2, SirT3, SirT5, SirT6; FIG. 10
Method: as §1, §2

T1 sequence (Q96EB6 whole entry, species assumed): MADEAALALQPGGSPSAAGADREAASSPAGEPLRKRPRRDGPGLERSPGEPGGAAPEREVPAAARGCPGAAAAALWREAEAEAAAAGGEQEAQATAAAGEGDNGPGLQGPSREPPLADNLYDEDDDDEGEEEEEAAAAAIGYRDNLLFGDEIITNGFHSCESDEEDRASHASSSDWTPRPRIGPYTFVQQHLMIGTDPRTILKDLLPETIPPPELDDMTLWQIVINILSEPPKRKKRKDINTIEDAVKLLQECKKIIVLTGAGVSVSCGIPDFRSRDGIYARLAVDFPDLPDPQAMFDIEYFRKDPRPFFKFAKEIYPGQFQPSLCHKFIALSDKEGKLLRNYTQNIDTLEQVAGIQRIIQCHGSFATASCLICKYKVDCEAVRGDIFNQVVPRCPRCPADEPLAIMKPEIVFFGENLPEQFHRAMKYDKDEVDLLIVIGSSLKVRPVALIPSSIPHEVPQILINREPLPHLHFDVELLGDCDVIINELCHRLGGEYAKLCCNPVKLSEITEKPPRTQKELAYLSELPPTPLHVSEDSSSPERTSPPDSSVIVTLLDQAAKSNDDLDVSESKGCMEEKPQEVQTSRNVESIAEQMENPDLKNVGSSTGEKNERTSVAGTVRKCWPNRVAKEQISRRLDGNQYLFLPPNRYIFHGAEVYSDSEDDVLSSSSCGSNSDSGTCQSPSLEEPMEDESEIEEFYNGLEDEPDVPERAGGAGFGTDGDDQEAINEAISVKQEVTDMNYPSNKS

SMILES: Cc1ccc(C(=O)Nc2ccc(S(=O)(=O)O)c3cc(S(=O)(=O)O)cc(S(=O)(=O)O)c23)cc1NC(=O)c1cccc(NC(=O)Nc2cccc(C(=O)Nc3cc(C(=O)Nc4ccc(S(=O)(=O)O)c5cc(S(=O)(=O)O)cc(S(=O)(=O)O)c45)ccc3C)c2)c1 [Suramin, suramin]
- SirT1 captured by standard pulldown assay (SirT1 [1]): less
- SirT5 captured by standard pulldown assay (SirT5): less
- SirT3 captured by standard pulldown assay (SirT3): less
- inhibition confirmed by HPLC assay (SirT1 [2]): confirmed
- IC50 (sirtuin): low micromolar range

SMILES: CC(/C=C/C(=O)NO)=C\[C@@H](C)C(=O)c1ccc(N(C)C)cc1 [TSA, trichostatin A]
- effect on sirtuin capture in pulldown assay [3]: no effects
